Among the data in US11384055B2 (BIOMARIN PHARMACEUTICAL INC., priority 2017, dated 2022) are IC50 values, retold here.

Structures are written as SMILES. Bounds are passed on as bounds.

For the first experiment, the target named is T1, Human GO (Homo sapiens, UniProt Q9UJM8).
T1 construct: purchased Novus Biologicals NBP1-72412
T1 sequence (Q9UJM8 1-370): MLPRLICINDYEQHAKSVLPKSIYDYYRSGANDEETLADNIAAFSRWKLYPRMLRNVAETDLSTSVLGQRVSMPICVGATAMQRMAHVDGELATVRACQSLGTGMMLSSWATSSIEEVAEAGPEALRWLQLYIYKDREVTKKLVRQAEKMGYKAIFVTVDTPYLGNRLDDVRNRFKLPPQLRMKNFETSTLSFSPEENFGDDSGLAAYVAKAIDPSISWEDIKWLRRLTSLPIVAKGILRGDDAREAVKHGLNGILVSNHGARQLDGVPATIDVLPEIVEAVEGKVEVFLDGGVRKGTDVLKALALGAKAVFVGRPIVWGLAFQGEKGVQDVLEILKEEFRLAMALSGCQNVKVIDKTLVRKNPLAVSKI
The experiment in a line: GO enzymatic assay (coupled fluorescence/HRP assay, glycolate substrate). It is filed as biochemical.
Conditions: not given
The essentials:
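Human GO incubated with glycolate substrate in 50 mM potassium phosphate, pH 7, with varying inhibitor concentrations. Activity read by coupled HRP fluorescence. IC50 taken from variable-slope sigmoidal dose-response fits of percent inhibition relative to DMSO control.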
As usually defined, the IC50 is the concentration that gives 50% inhibition. As for `CS(=O)(=O)c1ccc(-c2ccc(Oc3[nH]nnc3C(=O)O)cc2)cc1` [Compound 401, 4-((4′-(methylsulfonyl)-[1,1′-biphenyl]-4-yl)oxy)-1H-1,2,3-triazole-5-carboxylic acid 2,2,2-trifluoroacetate], the IC50 was < 100 nM.

Still in this experiment, the particulars now being: Table 2; read-out: Range (range of IC50 values calculated from the enzymatic assays).
With `O=C(O)c1[nH]nnc1O[C@H]1CC[C@@H](c2ccc(OC(F)(F)F)c(Cl)c2)CC1` [Compound 360, 4-(((cis)-4-(3-chloro-4-(trifluoromethoxy)phenyl)cyclohexyl)oxy)-1H-1,2,3-triazole-5-carboxylic acid], the IC50 was < 100 nM.

`O=C(O)c1[nH]nnc1OC1CCN(c2ccc(OC(F)(F)F)c(Cl)c2)CC1` [Compound 361, 4-((1-(3-chloro-4-(trifluoromethoxy)phenyl)piperidin-4-yl)oxy)-1H-1,2,3-triazole-5-carboxylic acid]: the IC50 was < 100 nM.

As for `O=C(O)c1[nH]nnc1Oc1ccc(Cl)c(OCc2ccc(F)cc2)c1` [Compound 362, 4-(4-chloro-3-((4-fluorobenzyl)oxy)phenoxy)-1H-1,2,3-triazole-5-carboxylic acid], the 50% inhibitory concentration (IC50) was < 100 nM.

In the case of `NC(=O)c1ccc([C@H]2CC[C@@H](Oc3nn[nH]c3C(=O)O)CC2)cc1` [Compound 363, 4-(((cis)-4-(4-carbamoylphenyl)cyclohexyl)oxy)-1H-1,2,3-triazole-5-carboxylic acid 2,2,2-trifluoroacetate], the IC50 was < 100 nM.

On to `NC(=O)c1ccc([C@H]2CC[C@H](Oc3nn[nH]c3C(=O)O)CC2)cc1` [Compound 364, 4-(((trans)-4-(4-carbamoylphenyl)cyclohexyl)oxy)-1H-1,2,3-triazole-5-carboxylic acid 2,2,2-trifluoroacetate], for which the IC50 is < 100 nM.

As for `N#Cc1ccc([C@H]2CC[C@@H](Oc3nn[nH]c3C(=O)O)CC2)cc1` [Compound 365, 4-(((cis)-4-(4-cyanophenyl)cyclohexyl)oxy)-1H-1,2,3-triazole-5-carboxylic acid], the IC50 was < 100 nM.

In the case of `O=C(O)c1[nH]nnc1OC1CCN(c2cc(Cl)ccc2OC(F)(F)F)CC1` [Compound 367, 4-((1-(5-chloro-2-(trifluoromethoxy)phenyl)piperidin-4-yl)oxy)-1H-1,2,3-triazole-5-carboxylic acid 2,2,2-trifluoroacetate], the IC50 is < 100 nM.

For the compound `O=C(O)c1[nH]nnc1O[C@H]1CC[C@@H](c2ccc(N3CCC(F)(F)CC3)cc2)CC1` [Compound 368, 4-(((cis)-4-(4-(4,4-difluoropiperidin-1-yl)phenyl)cyclohexyl)oxy)-1H-1,2,3-triazole-5-carboxylic acid 2,2,2-trifluoroacetate], the IC50 is < 100 nM.

Turning to `O=C(O)c1[nH]nnc1OCC1C2CN(c3ccc(Cl)c(Cl)c3)CC12` (stereo not shown) [Compound 369, 4-((3-(3,4-dichlorophenyl)-3-azabicyclo[3.1.0]hexan-6-yl)methoxy)-1H-1,2,3-triazole-5-carboxylic acid], the IC50 was < 100 nM.

`CCN(CC)C(=O)OCOC(=O)c1[nH]nnc1O[C@H]1CC[C@H](c2ccc(OC(F)(F)F)cc2)CC1` [Compound 370, ((diethylcarbamoyl)oxy)methyl 4-(((trans)-4-(4-(trifluoromethoxy)phenyl)cyclohexyl)oxy)-1H-1,2,3-triazole-5-carboxylate]: the IC50 is > 10000 nM.

For the compound `O=C(O)c1[nH]nnc1SCC1C2CN(c3ccc(Cl)c(Cl)c3)CC12` (stereo not shown) [Compound 373, 4-(((3-(3,4-dichlorophenyl)-3-azabicyclo[3.1.0]hexan-6-yl)methyl)thio)-1H-1,2,3-triazole-5-carboxylic acid], the 50% inhibitory concentration (IC50) is < 100 nM.

For the compound `O=C(O)c1[nH]nnc1Oc1cccc(OC2CCCC2)c1` [Compound 375, 4-(3-(cyclopentyloxy)phenoxy)-1H-1,2,3-triazole-5-carboxylic acid 2,2,2-trifluoroacetate], the IC50 is < 100 nM.

Staying with this experiment, now noted: Table 3; read-out: Range (range of IC50 values calculated from the enzymatic assays).
In the case of `O=C(O)c1[nH]nnc1OC(Cc1ccc(-c2ccc(OC(F)(F)F)cc2)cc1)Cc1ccc(-c2ccc(OC(F)(F)F)cc2)cc1` [Compound 366, 4-((1,3-bis(4′-(trifluoromethoxy)-[1,1′-biphenyl]-4-yl)propan-2-yl)oxy)-1H-1,2,3-triazole-5-carboxylic acid], the IC50 was 100 to 1000 nM.

On to `O=C(O)c1[nH]nnc1CCN(Cc1ccc(Cl)cc1)Cc1ccc(Cl)cc1` [Compound 372, 4-(2-(bis(4-chlorobenzyl)amino)ethyl)-1H-1,2,3-triazole-5-carboxylic acid 2,2,2-trifluoroacetate], for which the IC50 was 100 to 1000 nM.

Take `O=C(O)c1[nH]nnc1CCN(Cc1ccc(Cl)cc1)Cc1ccc(-c2ccc(OC(F)(F)F)cc2)cc1` [Compound 374, 4-(2-((4-chlorobenzyl)((4′-(trifluoromethoxy)-[1,1′-biphenyl]-4-yl)methyl)amino)ethyl)-1H-1,2,3-triazole-5-carboxylic acid 2,2,2-trifluoroacetate]: the IC50 was 100 to 1000 nM.

The same experiment, now with this note: Table 4; read-out: Range (range of IC50 values calculated from the enzymatic assays).
With `O=C(O)c1[nH]nnc1OC(c1ccccc1)C(O)c1ccc(Cl)cc1` (stereo not shown) [Compound 378, 4-(2-(4-chlorophenyl)-2-hydroxy-1-phenylethoxy)-1H-1,2,3-triazole-5-carboxylic acid], the IC50 is 100 to 1000 nM.

In the case of `N#Cc1ccc(-c2ccc(Sc3nn[nH]c3C(=O)O)cc2)cc1` [Compound 389, 4-((4′-cyano-[1,1′-biphenyl]-4-yl)thio)-1H-1,2,3-triazole-5-carboxylic acid 2,2,2-trifluoroacetate], the IC50 was < 100 nM.

`CC(OC(=O)c1[nH]nnc1O[C@H]1CC[C@H](c2ccc(OC(F)(F)F)cc2)CC1)OC(=O)C1CCCCC1` (stereo partly drawn) [Compound 391, 1-((cyclohexanecarbonyl)oxy)ethyl 4-(((trans)-4-(4-(trifluoromethoxy)phenyl)cyclohexyl)oxy)-1H-1,2,3-triazole-5-carboxylate]: the IC50 is 100 to 1000 nM.

With `CCC(OC(=O)c1[nH]nnc1O[C@H]1CC[C@H](c2ccc(OC(F)(F)F)cc2)CC1)OC(=O)C1CCCCC1` (stereo partly drawn) [Compound 392, 1-((cyclohexanecarbonyl)oxy)propyl 4-(((trans)-4-(4-(trifluoromethoxy)phenyl)cyclohexyl)oxy)-1H-1,2,3-triazole-5-carboxylate], the IC50 was 100 to 1000 nM.

Regarding `O=C(O)c1[nH]nnc1O[C@H]1CC[C@H](c2cc(Cl)ccc2OC(F)(F)F)CC1` [Compound 393, 4-(((trans)-4-(5-chloro-2-(trifluoromethoxy)phenyl)cyclohexyl)oxy)-1H-1,2,3-triazole-5-carboxylic acid], the IC50 was < 100 nM.

As for `O=C(O)c1[nH]nnc1Oc1ccc(F)c(OCc2ccc(OC(F)(F)F)cc2)c1` [Compound 400, 4-(4-fluoro-3-((4-(trifluoromethoxy)benzyl)oxy)phenoxy)-1H-1,2,3-triazole-5-carboxylic acid 2,2,2-trifluoroacetate], the IC50 was < 100 nM.

Consider `O=C(O)c1[nH]nnc1SC1CCN(c2cc(OC(F)(F)F)ccc2Cl)CC1` [Compound 402, 4-((1-(2-chloro-5-(trifluoromethoxy)phenyl)piperidin-4-yl)thio)-1H-1,2,3-triazole-5-carboxylic acid], for which the IC50 is < 100 nM.

On to `O=C(O)c1[nH]nnc1Oc1ccc(-c2ccc(N3CCCCC3)cc2)c(Cl)c1` [Compound 406, 4-((2-chloro-4′-(piperidin-1-yl)-[1,1′-biphenyl]-4-yl)oxy)-1H-1,2,3-triazole-5-carboxylic acid 2,2,2-trifluoroacetate], for which the IC50 is < 100 nM.

As for `O=C(O)c1[nH]nnc1Oc1ccc(-c2ccc(N3CCCCC3)cc2Cl)cc1` [Compound 407, 4-((2′-chloro-4′-(piperidin-1-yl)-[1,1′-biphenyl]-4-yl)oxy)-1H-1,2,3-triazole-5-carboxylic acid], the IC50 was < 100 nM.

On to `O=C(O)c1[nH]nnc1Oc1ccc(Cl)c(OCc2ccc(OC(F)(F)F)cc2)c1` [Compound 408, 4-(4-chloro-3-((4-(trifluoromethoxy)benzyl)oxy)phenoxy)-1H-1,2,3-triazole-5-carboxylic acid], for which the IC50 is < 100 nM.

In the case of `NS(=O)(=O)c1ccc(-c2ccc(Oc3nn[nH]c3C(=O)O)cc2)cc1` [Compound 413, 4-((4′-sulfamoyl-[1,1′-biphenyl]-4-yl)oxy)-1H-1,2,3-triazole-5-carboxylic acid], the IC50 is < 100 nM.

As for `O=C(O)c1[nH]nnc1Oc1ccc(Cl)c(OCc2ccc(C(F)(F)F)cc2)c1` [Compound 415, 4-(4-chloro-3-((4-(trifluoromethyl)benzyl)oxy)phenoxy)-1H-1,2,3-triazole-5-carboxylic acid], the IC50 is < 100 nM.

On to `N#Cc1ccc(Oc2nn[nH]c2C(=O)O)cc1OCc1ccc(OC(F)(F)F)cc1` [Compound 421, 4-(4-cyano-3-((4-(trifluoromethoxy)benzyl)oxy)phenoxy)-1H-1,2,3-triazole-5-carboxylic acid], for which the IC50 is < 100 nM.

Staying with this experiment, now noted: Table 5; GO enzymatic assay; read-out: Range (range of IC50 values calculated from the enzymatic assays).
On to `O=C(O)c1[nH]nnc1OC(c1ccccc1)C(O)c1ccc(Cl)cc1` (stereo not shown) [Compound 378, 4-(2-(4-chlorophenyl)-2-hydroxy-1-phenylethoxy)-1H-1,2,3-triazole-5-carboxylic acid], for which the IC50 is 100 to 1000 nM.

For `O=C(O)c1[nH]nnc1OC(Cc1ccc(Cl)cc1)Cc1ccc(-c2ccc(OC(F)(F)F)cc2)cc1` (stereo not shown) [Compound 385, 4-((1-(4-chlorophenyl)-3-(4′-(trifluoromethoxy)-[1,1′-biphenyl]-4-yl)propan-2-yl)oxy)-1H-1,2,3-triazole-5-carboxylic acid 2,2,2-trifluoroacetate], the IC50 was 100 to 1000 nM.
